In patent publication US11180483B2, “Substituted reverse pyrimidine Bmi-1 inhibitors” (PTC Therapeutics, Inc., priority 2012, dated 2021):

These compounds were tested on Bmi-1 (assay: Sandwich ELISA Assay (Bmi-1 ELISA) in HT-1080 cells).
Assay type: cell-based
Description: Cell Seeding and Compound Treatment (Day 1):
HT-1080 cells were seeded at 8000 cells/well (50 μL) in 96-well tissue culture plates. After the cells became adherent (3-4 hours), 2× diluted stocks of test compounds in 50 μL DMEM containing 1% DMSO (final DMSO concentration was 0.5%) were added and the plates were incubated at 37° C. under 5% CO2 for 40-48 hours.
ELISA Plate First Antibody Preparation (Day 2):
The First Antibody (Millipore Mouse, monoclonal to mouse Bmi-1, clone F6, catalog #05-637) diluted to 2 μg/mL in PBS was added (100 μL) to each well of a Nunc MaxiSorp 96-well ELISA plate. The plate was covered with a plate seal and allowed to stand overnight.
Cell Lysate Preparation (Day 3):
Fresh 1× Lysis buffer was prepared on the day of the assay as follows: 1 mM EDTA, 150 mM NaCl, 0.5% Triton-X 100, 10 mM NaF, 20 mM B-Glycerophosphate, 1 mM DTT (in PBS, pH 7.2-7.4) and 1× HALT protease inhibitor cocktail (Pierce #78410).
The 1× Lysis Buffer (40 μL) was added to each well and the plate was shaken for 5-10 minutes on an orbital shaker to allow cell lysis, then diluent (1% BSA in PBS in 0.5% NP40) (100 μL) was added to each well.
A standard curve was prepared at the following Bmi-1 concentrations: 8000, 4000, 2000, 1000, 500, 250, 125, 0 pg/mL The Bmi-1 Recombinant Protein Standard (Novus Biologicals PCGF4 Recombinant Protein (P01), catalog #H00000648-P01) used to prepare the standard curve was stored at −80° C. On first thaw, the Bmi-1 Recombinant Protein Standard was diluted to […] in Blocking Buffer (1% BSA in PBS; BSA: Fisher Scientific Catalog #1600-100). Aliquots were taken and refrozen at −80° C. The aliquots may be kept at 4° C. and reused after first thaw, but only within 1-2 weeks. The Bmi-1 Recombinant Protein Standard contains a GST-fusion tag that appears around 70 Kda on Western Blot.
The prepared ELISA plate was washed 3× with Wash Buffer (0.05% Tween-20 in PBS). The final wash was removed from the plate and the plate was blotted dry. Blocking Buffer (300 μL) (1% BSA in PBS) was added to each well. The plate was covered with a plate seal and incubated at room temperature for 1 hour. The blocked plate was washed 3× with Wash Buffer, then the final wash was removed and the plate was blotted dry. The previously prepared samples and standards were added (100 μL/well) and the plate was covered with a plate seal and incubated at 4° C. overnight.
The prepared ELISA plate was removed from 4° C., incubated at room temperature for 30 minutes, then washed and blotted dry as previously described for Day 3. The Second Antibody (Cell Signaling Rabbit anti-Bmi-1, Cat #2830) diluted to 1:600 in Blocking Buffer was added (100 μL) to each well, except as needed for background control wells. The plate was covered with a plate seal and incubated for 1.5 hrs at room temperature.
The ELISA plate was washed and blotted dry as previously described. The Third Antibody (Cell Signaling HRP conjugated anti-rabbit IgG (CellSignaling, Cat #:7074) diluted to 1:300 in Blocking Buffer was added (100 μL) to each well, except as needed for background control wells. The plate was incubated for 1 hr at room temperature.
The plate was washed and blotted dry as previously described, then prepared TMB substrate (TMB substrate kit, Pierce catalog #34021) (prepared by mixing kit reagents 1:1) (100 μL) was added per well. The plate was incubated for 20-30 minutes at room temperature in the dark, then Stop Solution (2 M sulfuric acid in water) (50 μL) was added per well. The plates were read at OD450 (experimental) and OD570 (reference).

Compound | EC50
Cc1nc2ncc(Cl)cc2n1-c1nc(N)c(F)c(Nc2ccc(OC(F)F)c(F)c2)n1 [Cpd 116, 2-(6-chloro-2-methyl-1H-imidazo[4,5-b]pyridin-1-yl)-N-[4-(difluoromethoxy)-3-fluorophenyl]-5-fluoropyrimidine-4,6-diamine] | 10 to 100 nM
Cc1nc2ccc(N)cc2n1-c1nc(N)c(F)c(Nc2ccc(C(F)(F)F)cc2)n1 [Cpd 284, 2-(6-amino-2-methyl-1H-benzimidazol-1-yl)-5-fluoro-N-[4-(trifluoromethyl)phenyl]pyrimidine-4,6-diamine] | 10 to 100 nM
Cc1ccc(Nc2ccnc(-c3c(C(F)(F)F)nc4ccccn34)n2)cc1Cl [Cpd 36, N-(3-chloro-4-methylphenyl)-2-[2-(trifluoromethyl)imidazo[1,2-a]pyridin-3-yl]pyrimidin-4-amine] | 10 to 100 nM
Cc1ccc(Nc2nc(-n3c(C)nc4ccc(F)cc43)nc(N)c2F)cc1 [Cpd 184, 5-fluoro-2-(6-fluoro-2-methyl-1H-benzimidazol-1-yl)-N-(4-methylphenyl)pyrimidine-4,6-diamine] | 1 to 10 nM
CCc1nc2ccccc2n1-c1nc(N)c(F)c(Nc2ccc(C(F)(F)F)cc2)n1 [Cpd 107, 2-(2-ethyl-1H-benzimidazol-1-yl)-5-fluoro-N-[4-(trifluoromethyl)phenyl]pyrimidine-4,6-diamine] | 10 to 100 nM
Cc1nc2ccccc2n1-c1nc(N)c(F)c(Nc2ccc(OC(F)F)c(F)c2)n1 [Cpd 119, N-[4-(difluoromethoxy)-3-fluorophenyl]-5-fluoro-2-(2-methyl-1H-benzimidazol-1-yl)pyrimidine-4,6-diamine] | 10 to 100 nM
Cc1nc2ccc(F)cc2n1-c1nc(N)c(F)c(Nc2ccc(C(F)(F)F)nc2)n1 [Cpd 183, 5-fluoro-2-(6-fluoro-2-methyl-1H-benzimidazol-1-yl)-N-[6-(trifluoromethyl)pyridin-3-yl]pyrimidine-4,6-diamine] | 10 to 100 nM
COc1ccc(Nc2nc(-c3c(C)nn4ccccc34)nc(N)c2F)cc1 [Cpd 239, 5-fluoro-N-(4-methoxyphenyl)-2-(2-methylpyrazolo[1,5-a]pyridin-3-yl)pyrimidine-4,6-diamine] | 10 to 100 nM
FC(F)(F)c1ccc(Nc2ccnc(-c3c(C(F)(F)F)nc4ccccn34)n2)cc1 [Cpd 7, 2-[2-(trifluoromethyl)imidazo[1,2-a]pyridin-3-yl]-N-[4-(trifluoromethyl)phenyl]pyrimidin-4-amine] | 100 to 3000 nM
Cc1nc2ccc(F)cc2n1-c1nc(N)c(F)c(Nc2ccc(Cl)cc2)n1 [Cpd 185, N-(4-chlorophenyl)-5-fluoro-2-(6-fluoro-2-methyl-1H-benzimidazol-1-yl)pyrimidine-4,6-diamine] | 10 to 100 nM
FC(F)(F)c1nc2ccccn2c1-c1nccc(Nc2ccc(Cl)cc2)n1 [Cpd 8, N-(4-chlorophenyl)-2-[2-(trifluoromethyl)imidazo[1,2-a]pyridin-3-yl]pyrimidin-4-amine] | 100 to 3000 nM
Cc1nc2ccc(Cl)cc2n1-c1nc(N)c(F)c(Nc2ccc(OC(F)F)cc2)n1 [Cpd 161, 2-(6-chloro-2-methyl-1H-benzimidazol-1-yl)-N-[4-(difluoromethoxy)phenyl]-5-fluoropyrimidine-4,6-diamine] | 10 to 100 nM
Cc1nc2cc(C#N)ccc2n1-c1nc(N)c(F)c(Nc2ccc(C(F)(F)F)cc2)n1 [Cpd 229, 1-(4-amino-5-fluoro-6-{[4-(trifluoromethyl)phenyl]amino}pyrimidin-2-yl)-2-methyl-1H-benzimidazole-5-carbonitrile] | 100 to 3000 nM
Nc1cc(Nc2ccc(C(F)(F)F)cc2)nc(-n2c(C3CC3)nc3ncc(F)cc32)n1 [Cpd 92, 2-(2-cyclopropyl-6-fluoro-1H-imidazo[4,5-b]pyridin-1-yl)-N-[4-(trifluoromethyl)phenyl]pyrimidine-4,6-diamine] | 10 to 100 nM
Nc1cc(Nc2ccc(OC(F)F)cc2)nc(-n2c(C3CC3)nc3ncc(F)cc32)n1 [Cpd 103, 2-(2-cyclopropyl-6-fluoro-1H-imidazo[4,5-b]pyridin-1-yl)-N-[4-(difluoromethoxy)phenyl]pyrimidine-4,6-diamine] | 10 to 100 nM
Cc1nc2cc(F)c(F)cc2n1-c1nc(N)cc(Nc2ccc(C(F)(F)F)c(F)c2)n1 [Cpd 74, 2-(5,6-difluoro-2-methyl-1H-benzimidazol-1-yl)-N-[3-fluoro-4-(trifluoromethyl)phenyl]pyrimidine-4,6-diamine] | 100 to 3000 nM
COCCNc1cc(Nc2ccc(C(F)(F)F)cc2)nc(-n2c(C)nc3ccccc32)n1 [Cpd 58, N^4-(2-methoxyethyl)-2-(2-methyl-1H-benzimidazol-1-yl)-N^6-[4-(trifluoromethyl)phenyl]pyrimidine-4,6-diamine] | 100 to 3000 nM

Continued, values first:

EC50 | Compound
10 to 100 nM | Cc1nc2cc(F)cc(F)c2n1-c1nc(N)c(F)c(Nc2ccc(C(F)(F)F)cc2)n1 [Cpd 243, 2-(5,7-difluoro-2-methyl-1H-benzimidazol-1-yl)-5-fluoro-N-[4-(trifluoromethyl)phenyl]pyrimidine-4,6-diamine]
10 to 100 nM | Cc1nc2c(F)cc(F)cc2n1-c1nc(N)c(F)c(Nc2ccc(Cl)cc2)n1 [Cpd 237, N-(4-chlorophenyl)-2-(4,6-difluoro-2-methyl-1H-benzimidazol-1-yl)-5-fluoropyrimidine-4,6-diamine]
10 to 100 nM | COc1ccc2nc(C)n(-c3nc(N)c(F)c(Nc4ccc(C(F)(F)F)cc4)n3)c2c1 [Cpd 244, 5-fluoro-2-(6-methoxy-2-methyl-1H-benzimidazol-1-yl)-N-[4-(trifluoromethyl)phenyl]pyrimidine-4,6-diamine]
100 to 3000 nM | CCc1ccc2nc(C)n(-c3nc(N)cc(Nc4ccc(C(F)(F)F)cc4)n3)c2c1 [Cpd 87, 2-(6-ethyl-2-methyl-1H-benzimidazol-1-yl)-N-[4-(trifluoromethyl)phenyl]pyrimidine-4,6-diamine]
100 to 3000 nM | COc1ccc(Nc2ccnc(-c3c(C(F)(F)F)nc4cnccn34)n2)cc1 [Cpd 45, N-(4-methoxyphenyl)-2-[2-(trifluoromethyl)imidazo[1,2-a]pyrazin-3-yl]pyrimidin-4-amine]
10 to 100 nM | Cc1nc2ncc(F)cc2n1-c1nc(N)cc(Nc2ccc(C(F)(F)F)cc2)n1 [Cpd 94, 2-(6-fluoro-2-methyl-1H-imidazo[4,5-b]pyridin-1-yl)-N-[4-(trifluoromethyl)phenyl]pyrimidine-4,6-diamine]
10 to 100 nM | Cc1nc2ccccc2n1-c1nc(N)c(F)c(Nc2ccc(OC(F)(F)F)cc2)n1 [Cpd 204, 5-fluoro-2-(2-methyl-1H-benzimidazol-1-yl)-N-[4-(trifluoromethoxy)phenyl]pyrimidine-4,6-diamine]
10 to 100 nM | Cc1nc2ccc(F)cn2c1-c1nc(N)cc(Nc2ccc(C(F)(F)F)cc2)n1 [Cpd 68, 2-(6-fluoro-2-methylimidazo[1,2-a]pyridin-3-yl)-N-[4-(trifluoromethyl)phenyl]pyrimidine-4,6-diamine]
10 to 100 nM | Cc1nc2ccccc2n1-c1nc(N)c(F)c(Nc2ccc(C(F)(F)F)cc2)n1 [Cpd 95, 5-fluoro-2-(2-methyl-1H-benzimidazol-1-yl)-N-[4-(trifluoromethyl)phenyl]pyrimidine-4,6-diamine]
10 to 100 nM | Cc1nc2ccc(F)cc2n1-c1nc(N)c(F)c(Nc2ccc(OC(F)F)cc2)n1 [Cpd 110, N-[4-(difluoromethoxy)phenyl]-5-fluoro-2-(6-fluoro-2-methyl-1H-benzimidazol-1-yl)pyrimidine-4,6-diamine]
